Assay results from patent US12077503B2, “Substituted cyclic amides and their use as herbicides” (FMC CORPORATION, priority 2015, dated 2024).

Columns and labels:
Format in all cases: in vivo
[1] = tested on: giant foxtail (Setaria faberi); experiment: Test G Pre-Emergence Protocol; conditions: Setaria faberi, pre-emergence, 312 h, evaluated after 13 days
Method in brief: (§1)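 Visual injury (0–100) at day 13 after a single pre-emergence spray. Rates: 15.625, 62.5, 250 g/ha in acetone–water 50:50 with 0.5% Tween 20. Growth conditions: 24/16° C, 14 h light, 65% humidity.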

corn (Zea mays) [2] = experiment: Test G Pre-Emergence Protocol; conditions: Zea mays, pre-emergence, 312 h, evaluated after 13 days
Method in brief: as §1

[3] = tested on: velvetleaf (Abutilon theophrasti); experiment: Test G Pre-Emergence Protocol; conditions: Abutilon theophrasti, pre-emergence, 312 h, evaluated after 13 days
Method in brief: as §1

[4] = tested on: redroot pigweed (Amaranthus retroflexus); experiment: Test G Pre-Emergence Protocol; conditions: Amaranthus retroflexus, pre-emergence, 312 h, evaluated after 13 days
Method in brief: as §1

[5] = tested on: barnyardgrass (Echinochloa crus-galli); experiment: Test G Pre-Emergence Protocol; conditions: Echinochloa crus-galli, pre-emergence, 312 h, evaluated after 13 days
Method in brief: as §1

[6] = tested on: ivy-leaved morning glory (Ipomoea hederacea); experiment: Test G Pre-Emergence Protocol; conditions: Ipomoea, pre-emergence, 312 h, evaluated after 13 days
Method in brief: as §1

[7] = tested on: giant foxtail (Setaria faberi); experiment: Test G Post-Emergence Protocol; conditions: Setaria faberi, post-emergence, 312 h, read-out: Foxtail, Giant damage rating
Method in brief: (§2)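 Foliar application was made 8 days after sowing, using an aqueous spray of the active in acetone/water (50:50) with 0.5% Tween 20, at doses of 15.625, 62.5 or 250 g/ha. Injury was assessed 13 days later, where 100 meant the plant was fully damaged.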

corn (Zea mays) [8] = experiment: Test G Post-Emergence Protocol; conditions: Zea mays, post-emergence, 312 h, read-out: Corn damage rating
Method in brief: as §2

[9] = tested on: velvetleaf (Abutilon theophrasti); experiment: Test G Post-Emergence Protocol; conditions: Abutilon theophrasti, post-emergence, 312 h, read-out: Velvetleaf damage rating
Method in brief: as §2

[10] = tested on: redroot pigweed (Amaranthus retroflexus); experiment: Test G Post-Emergence Protocol; conditions: Amaranthus retroflexus, post-emergence, 312 h, read-out: Pigweed, Redroot damage rating
Method in brief: as §2

[11] = tested on: barnyardgrass (Echinochloa crus-galli); experiment: Test G Post-Emergence Protocol; conditions: Echinochloa crus-galli, post-emergence, 312 h, read-out: Barnyardgrass damage rating
Method in brief: as §2

[12] = tested on: ivy-leaved morning glory (Ipomoea hederacea); experiment: Test G Post-Emergence Protocol; conditions: Ipomoea, post-emergence, 312 h, read-out: Morningglory, Ivy-leaved damage rating
Method in brief: as §2

[13] = 15.625 g ai/ha, evaluated after 13 days (100=total damage to plant; 0=no damage to plant)
[14] = 62.5 g ai/ha, evaluated after 13 days, 100=total damage to plant, 0=no damage to plant
[15] = 250 g ai/ha, evaluated after 13 days, 100=total damage to plant, 0=no damage to plant

CC(C)OC(=O)c1cc([C@H]2CN(C)C(=O)[C@@H]2C(=O)Nc2ccccc2F)ccc1F (racemic) [Compound 1730]
pest or weed control at 15.625 g/ha ([1]; 15.625 g ai/ha, read-out: Foxtail, Giant damage rating (100=total damage to plant; 0=no damage to plant)): 20% | pest or weed control at 62.5 g/ha ([1]; 62.5 g ai/ha, 100=total damage to plant, 0=no damage to plant, read-out: Foxtail, Giant damage rating): 50% | pest or weed control at 250 g/ha ([1]; 250 g ai/ha, read-out: Foxtail, Giant damage rating (100=total damage to plant; 0=no damage to plant)): 90% | plant injury at 15.625 g/ha (corn (Zea mays) [2]; 15.625 g ai/ha, read-out: Corn damage rating (100=total damage to plant; 0=no damage to plant)): 0% | plant injury at 62.5 g/ha (corn (Zea mays) [2]; 62.5 g ai/ha, 100=total damage to plant, 0=no damage to plant, read-out: Corn damage rating): 0% | plant injury at 250 g/ha (corn (Zea mays) [2]; 250 g ai/ha, read-out: Corn damage rating (100=total damage to plant; 0=no damage to plant)): 0% | pest or weed control at 15.625 g/ha ([3]; 15.625 g ai/ha, read-out: Velvetleaf damage rating (100=total damage to plant; 0=no damage to plant)): 0% | pest or weed control at 62.5 g/ha ([3]; 62.5 g ai/ha, 100=total damage to plant, 0=no damage to plant, read-out: Velvetleaf damage rating): 0% | pest or weed control at 250 g/ha ([3]; 250 g ai/ha, read-out: Velvetleaf damage rating (100=total damage to plant; 0=no damage to plant)): 0% | pest or weed control at 15.625 g/ha ([4]; 15.625 g ai/ha, read-out: Pigweed, Redroot damage rating (100=total damage to plant; 0=no damage to plant)): 0% | pest or weed control at 62.5 g/ha ([4]; 62.5 g ai/ha, 100=total damage to plant, 0=no damage to plant, read-out: Pigweed, Redroot damage rating): 0% | pest or weed control at 250 g/ha ([4]; 250 g ai/ha, read-out: Pigweed, Redroot damage rating (100=total damage to plant; 0=no damage to plant)): 0% | pest or weed control at 15.625 g/ha ([5]; 15.625 g ai/ha, read-out: Barnyardgrass damage rating (100=total damage to plant; 0=no damage to plant)): 0% | pest or weed control at 62.5 g/ha ([5]; 62.5 g ai/ha, 100=total damage to plant, 0=no damage to plant, read-out: Barnyardgrass damage rating): 10% | pest or weed control at 250 g/ha ([5]; 250 g ai/ha, read-out: Barnyardgrass damage rating (100=total damage to plant; 0=no damage to plant)): 70% | pest or weed control at 15.625 g/ha ([6]; 15.625 g ai/ha, read-out: Morningglory, Ivy-leaved damage rating (100=total damage to plant; 0=no damage to plant)): 0% | pest or weed control at 62.5 g/ha ([6]; 62.5 g ai/ha, 100=total damage to plant, 0=no damage to plant, read-out: Morningglory, Ivy-leaved damage rating): 0% | pest or weed control at 250 g/ha ([6]; 250 g ai/ha, read-out: Morningglory, Ivy-leaved damage rating (100=total damage to plant; 0=no damage to plant)): 0% | pest or weed control at 15.625 g/ha [7, 13]: 0% | pest or weed control at 62.5 g/ha [7, 14]: 20% | pest or weed control at 250 g/ha [7, 15]: 80% | plant injury at 15.625 g/ha (corn (Zea mays) [8]; [13]): 0% | plant injury at 62.5 g/ha (corn (Zea mays) [8]; [14]): 0% | plant injury at 250 g/ha (corn (Zea mays) [8]; [15]): 0% | pest or weed control at 15.625 g/ha [9, 13]: 0% | pest or weed control at 62.5 g/ha [9, 14]: 0% | pest or weed control at 250 g/ha [9, 15]: 0% | pest or weed control at 15.625 g/ha [10, 13]: 0% | pest or weed control at 62.5 g/ha [10, 14]: 0% | pest or weed control at 250 g/ha [10, 15]: 0% | pest or weed control at 15.625 g/ha [11, 13]: 0% | pest or weed control at 62.5 g/ha [11, 14]: 40% | pest or weed control at 250 g/ha [11, 15]: 80% | pest or weed control at 15.625 g/ha [12, 13]: 0% | pest or weed control at 62.5 g/ha [12, 14]: 0% | pest or weed control at 250 g/ha [12, 15]: 0%
